Tests used:
[1] = Dilution and pH determination for sample solutions; type: physicochemical
Procedure: Method: 0.2500 g of a sample was accurately weighed and added to a 25 mL volumetric flask, dissolved with purified water, and diluted to a specified scale to prepare a 1.00% (10,000.0 ppm) initial solution. The initial solution was diluted with purified water in different ratios to prepare a series of solutions with a concentration of 1,000.0 ppm to 0.1 ppm. A pH value of each sample was determined three times.

[2] = Stability of sample solutions in the dark/under light; type: physicochemical
Procedure: Determination: An appropriate amount of a salt sample was taken, dissolved with water, and diluted to prepare a test solution with a concentration of about 10 ppm. An acidic reference substance (extremely-insoluble in water) was prepared with a 30% to 50% ethanol aqueous solution into a test solution with a concentration of about 10 ppm.
Each test solution was scanned by an ultraviolet spectrophotometer (at 0 h) for absorbance in a range of 200 nm to 800 nm immediately after being prepared. Then a test solution of each sample was divided into two parts. One part was placed at room temperature of 25° C. in the dark, and the other part was placed under light with a light intensity of 30,000 lux. At 1 h, 2 h, and 3 h, a solution sample was collected and scanned for absorbance respectively.
An absorbance value of a maximum absorption peak at 0 h (starting) of each test solution was set as a relative content of 100%, and a ratio of an absorbance value at each time point to the absorbance value at 0 h was calculated to determine a relative content, %.

[3] = system: mung bean seedlings; experiment: Inducing adventitious roots from hypocotyls of mung bean; type: in vivo; settings: day 7
Procedure: Test solution preparation: 8 mL of a commercially-available STANLEY universal hydroponic nutrient solution was taken and diluted with tap water to 3,200 mL (400-fold dilution) to produce a dilute nutrient solution. An appropriate amount of each of salt samples such as protoporphyrin disodium and potassium chlorhematin was weighed and prepared with the dilute nutrient solution into 0.010 ppm and 0.1 ppm sample test solutions, and 150 mL of each test solution was taken. 150 mL of the dilute nutrient solution was taken as a blank control. The test solutions and the control solution were placed in brown bottles, and the brown bottles were sealed with a black film. Mung bean seedlings with uniform growth and a seedling height of 7 cm to 8 cm were selected, and cut at 3 cm below a first true leaf node. 8 mung bean seedlings were inserted into each bottle (with roots removed) to make lower radicles soaked in a solution. Mung bean seedlings were treated at room temperature of 20° C. to 25° C. for 7 d in total, during which the solution was changed every 2 d. On day 2 to day 3 of the treatment, there was a significant difference. On day 7, the observation and determination were conducted. An average adventitious root number and an average total adventitious root length for each seedling were calculated, and results were shown in the following table: […]

[4] = system: wheat; experiment: Spraying on wheat to increase a yield; type: in vivo, wheat (Huaimai 35)
Procedure: Crop: Huaimai 35. […] On Jun. 11, 2021, the harvesting was conducted throughout the field at a time.

[5] = system: mosaic virus; experiment: Controlling diseases in tobacco by spraying; type: in vivo, tobacco (Yunyan 87); settings: 0.20 ppm sprayed twice, 30 L/mu
From the text: For each treatment, 4 plots relatively scattered were selected from the field, with each plot of 50 m^2. An agent was sprayed twice around May 28 and June 4 during a root-spreading stage (12 leaves to 14 leaves) after tobacco transplanting, respectively. A same spraying volume (30 L/mu) was adopted for each treatment. During the spraying operation, each leaf surface should be sprayed evenly without dead corners left.
On July 15, tobacco plants in all treatment plots were surveyed. An incidence grading survey was conducted according to the Grade and investigation method of tobacco diseases and insect pests GB/T23222-2008, and an incidence rate and a disease index were counted for each treatment plot.

[6] = Water solubility of the prepared salts; type: physicochemical
[7] = target: chlorophyllase; experiment: In vitro chlorophyllase-inhibiting activity test; type: biochemical, mung bean; settings: substrate chlorophyll 120 ppm, sample 0.3 ppm to 30.0 ppm
Procedure: A chlorophyllase inhibition rate of a salt sample solution at each concentration was determined, and an IC50 value for a chlorophyllase inhibition activity of a salt sample was calculated.

[8] = system: pepper; experiment: Spraying on pepper to increase a yield; type: in vivo, pepper (Hebei Jize pepper)
Procedure: Experimental method: A land area of 10 mu was adopted for each of experimental and control groups. A treatment group was sprayed with a potassium hematin solution, a control group was sprayed with heme (at the same dose concentration as the treatment group), and a blank was sprayed with clear water. On May 19 (after transplanting) and July 2 (blooming stage), an agent was sprayed at 1.5 mg/mu in the treatment and control groups, with water amounts per mu respectively as follows: 15 L and 30 L (sample concentrations: 0.1 ppm and 0.05 ppm). On September 13, 10 pepper plants with uniform growth were selected from each of the treatment group and the control group, and fruit numbers and single-fruit weights were counted. The whole field was harvested in three batches on August 30, September 13, and September 25, respectively. Yields were subjected to combined statistics and comparison, and results were as follows: […]

[9] = under light 30,000 lux, 1 h, salts in water, acidic reference in 30% to 50% ethanol
[10] = under light 30,000 lux, 2 h, salts in water, acidic reference in 30% to 50% ethanol
[11] = under light 30,000 lux, 3 h, salts in water, acidic reference in 30% to 50% ethanol
[12] = 3 mg/mu sprayed 3 times (0.2, 0.1, 0.1 ppm)
[13] = 1.5 mg/mu sprayed twice (0.1 ppm and 0.05 ppm)

Row | Relative content [2, 9] | Relative content [2, 10] | Relative content [2, 11] | solubility in water [6] | IC50 for chlorophyllase inhibition activity [7] | Compound | other results
1 | 63.47% | 62.74% | 57.05% | – | – | C=CC1=C(C)c2cc3[nH]c(cc4nc(cc5[nH]c(cc1n2)c(C)c5CCC(=O)O)C(CCC(=O)O)=C4C)c(C)c3C=C [Protoporphyrin disodium, protoporphyrin disodium, reference compound] | pH ([1]; 0.1 ppm in purified water): (6.61); pH ([1]; 1.0 ppm in purified water): (6.67); pH ([1]; 10.0 ppm in purified water): (7.21); pH ([1]; 20.0 ppm in purified water): (7.37); pH ([1]; 30.0 ppm in purified water): (7.50); pH ([1]; 100.0 ppm in purified water): (8.05); pH ([1]; 1000.0 ppm in purified water): (9.25); pH ([1]; 10000.0 ppm in purified water): (10.60); Adventitious root number ([3]; 0.01 ppm): 9.61 root/seedling; Total adventitious root length ([3]; 0.01 ppm): 20.74 cm/seedling; Adventitious root number ([3]; 0.1 ppm): 9.77 root/seedling; Total adventitious root length ([3]; 0.1 ppm): 21.30 cm/seedling
2 | 98.85% | 97.47% | 96.78% | slightly soluble | 13.70 ppm | copper copper chlorophyllin [Example 51] | –
3 | 72.04% | 65.63% | 57.54% | easily soluble | 5.09 ppm | potassium iron chlorophyllin [Example 30] | –
4 | 71.62% | 66.31% | 63.93% | slightly soluble | 18.77 ppm | zinc zinc chlorophyllin [Example 41] | –
5 | 41.71% | 30.78% | 26.96% | easily soluble | 6.03 ppm | sodium chlorin [Example 53] | –
6 | 78.52% | 71.02% | 64.29% | slightly soluble | 4.92 ppm | copper iron chlorin [Example 29] | –
7 | 44.94% | 40.28% | 34.21% | slightly soluble | 6.23 ppm | manganese chlorin [Example 59] | –
8 | 71.60% | 62.44% | 63.14% | – | 5.26 ppm | magnesium iron chlorophyllin | pH ([1]; 0.1 ppm in purified water): (6.94); pH ([1]; 1.0 ppm in purified water): (7.11); pH ([1]; 10.0 ppm in purified water): (7.40); pH ([1]; 20.0 ppm in purified water): (7.65); pH ([1]; 30.0 ppm in purified water): (7.78); pH ([1]; 100.0 ppm in purified water): (8.18)
9 | 88.43% | 93.28% | 70.90% | slightly soluble | 17.76 ppm | copper zinc chlorophyllin [Example 42] | –

Row | Compound | Relative content [2, 9] | Relative content [2, 10] | Relative content [2, 11] | solubility in water [6] | IC50 for chlorophyllase inhibition activity [7] | other results
10 | iron chlorin [reference compound] | 31.04% | 28.12% | 23.73% | – | – | Relative content ([2]; in the dark, 25° C., 0 h): 100.0%; Relative content ([2]; in the dark, 25° C., 1 h): 99.25%; Relative content ([2]; in the dark, 25° C., 2 h): 99.26%; Relative content ([2]; in the dark, 25° C., 3 h): 99.20%; Relative content ([2]; under light 30,000 lux, 0 h): 100.00%; Actual yield per mu [4, 12]: 586.9 kg; Ear number per mu [4, 12]: 31.5 10,000; Grain number per ear [4, 12]: 34.6 grains/ear; Thousand-grain weight [4, 12]: 53.9 g; Yield increase rate per mu ([4]; 3 mg/mu sprayed 3 times, versus clear water): 4.99%; Disease index [5]: 8.90; Relative control effect [5]: 65.57%
11 | C=CC1=C(C)c2cc3[n-]c(cc4[n-]c(cc5nc(cc1n2)C(C)=C5C=C)c(C)c4CCC(=O)O)c(CCC(=O)O)c3C.[Cl-].[Fe+3] [Chlorhematin, chlorhematin, reference compound] | 27.73% | 21.64% | 20.21% | – | – | Relative content ([2]; in the dark, 25° C., 0 h): 100.00%; Relative content ([2]; in the dark, 25° C., 1 h): 99.55%; Relative content ([2]; in the dark, 25° C., 2 h): 99.24%; Relative content ([2]; in the dark, 25° C., 3 h): 98.65%; Relative content ([2]; under light 30,000 lux, 0 h): 100.00%; Relative content ([2]; under light 30,000 lux, 1 h, salts in water, acidic reference in 30% to 50% ethanol, listed as chlorhematin): less than 30%; Adventitious root number ([3]; 0.01 ppm): 11.07 root/seedling; Total adventitious root length ([3]; 0.01 ppm): 18.03 cm/seedling; Adventitious root number ([3]; 0.1 ppm): 10.33 root/seedling; Total adventitious root length ([3]; 0.1 ppm): 18.28 cm/seedling; Average fruit number [8, 13]: 49.2 fruits/plant; Single-fruit weight [8, 13]: 18.6 g/fruit; Yield per mu [8, 13]: 2833.3 kg/mu; Yield increase rate ([8]; 1.5 mg/mu sprayed twice, versus clear water): 5.33%

Reference: patent US20260123631A1, “NATURAL PORPHIN SALT AND USE THEREOF AS PLANT GROWTH REGULATOR AND PLANT IMMUNITY INDUCER” (NANJING BOSTEC BIOLOGICAL ENGINEERING CO., LTD, priority 2022, published 2026)
